Data taken from patent publication US9328142B2, “Lipopeptide inhibitors of RAS oncoproteins” (The United States of America, as represented by The …, priority 2011, dated 2016).

Key:
[1] = system: H358 broncheoalveolar cells (K-Ras mutant); test: Growth inhibition, thoracic malignancy cell lines: H358; format: cell-based, human
[2] = system: HP-1 malignant pleural mesothelioma cells (K-Ras WT); test: Growth inhibition, thoracic malignancy cell lines: HP-1; format: cell-based; details: HP-1, K-Ras WT
[3] = system: H2596 malignant pleural mesothelioma cells (K-Ras WT); test: Growth inhibition, thoracic malignancy cell lines: H2596; format: cell-based
[4] = system: H2461 malignant pleural mesothelioma cells (K-Ras WT); test: Growth inhibition, thoracic malignancy cell lines: H2461; format: cell-based
[5] = system: Calu 6 lung adenocarcinoma cells (K-Ras mutant); test: Growth inhibition, thoracic malignancy cell lines: Calu 6; format: cell-based; details: Calu 6, K-Ras mutant
[6] = system: H2009 lung adenocarcinoma cells (K-Ras mutant); test: Growth inhibition, thoracic malignancy cell lines: H2009; format: cell-based
[7] = system: H23 lung adenocarcinoma cells (K-Ras mutant); test: Growth inhibition, thoracic malignancy cell lines: H23; format: cell-based
[8] = system: H157 lung squamous cell carcinoma cells (K-Ras mutant); test: Growth inhibition, thoracic malignancy cell lines: H157; format: cell-based
[9] = system: Ras protein in H2009 and H2592 cells; test: Western blot of Ras protein amount in cancer cells; format: cell-based; details: 0-3.0 μM, 18 hours
Method: A further experiment was undertaken to determine the effect of analogs of helix 6 and HVR on the amount of K-Ras protein in cancer cells. H2009 (lung adenocarcinoma cells) and H2592 (plural mesothelioma cells) were exposed to varying concentrations (0-3.0 μM) of kR-4A-3, kR-4B-3, or kR-H6-3 for 18 hours. The cells then were lysed and the lysate was analyzed by Western blot using anti-Ras mAb (Cell Biolabs, Inc.).

[10] = system: H2882 lung adenocarcinoma cells (K-Ras WT); test: Growth inhibition, thoracic malignancy cell lines: H2882; format: cell-based
[11] = system: HCC15 lung squamous cell carcinoma cells (K-Ras WT); test: Growth inhibition, thoracic malignancy cell lines: HCC15; format: cell-based
[12] = system: H2373 malignant pleural mesothelioma cells (K-Ras WT); test: Growth inhibition, thoracic malignancy cell lines: H2373; format: cell-based
[13] = system: HCC95 lung squamous cell carcinoma cells (K-Ras WT); test: Growth inhibition, thoracic malignancy cell lines: HCC95; format: cell-based
[14] = system: A549 human lung cancer cell line harboring constitutively active Ras mutant; test: MTT growth inhibition assay, A549; format: cell-based
Method: MCF-7 (breast cancer), T47D (breast cancer), Colo 205 (colon cancer), JM-1 (rat hepatoma), Sk Mel-2 (melanoma), PLC (human hepatoma), and HepG2 (human hepatoma) were obtained from American Type Cell Culture Collection. MCF-7 cells were grown in RPMI medium supplemented with 10% Fetal Bovine Serum. The remaining cell lines were grown in DMEM medium supplemented with 10% Fetal Bovine Serum. For the assay, cells were seeded into 96 well plates in medium containing 1% Fetal Bovine Serum and 100 μL of a cell suspension containing 5000 cells per well were used for each well. Cell growth was evaluated utilizing MTT ((3-(4,5-Dimethylthiazol-2-yl)-2,5-diphenyltetrazolium). The absorbance of the wells at 544 nm was determined by a FLUOstar/POLARstar Galaxy (BMG Lab Technologies GmbH) microplate reader.
The growth inhibitory activity of compounds was compared using the A549 human lung cancer cell line harboring constitutively active G12D Ras mutant with the help of an MTT assay. […] Stepwise extensions and truncations confirmed that the peptide had the optimal length (see Table 1).
The growth inhibitory activity of compounds was compared using the A549 human lung cancer cell line harboring constitutively active G12D Ras mutant with the help of an MTT assay.

[15] = system: Calu3 lung adenocarcinoma cells (K-Ras WT); test: Growth inhibition, thoracic malignancy cell lines: Calu3; format: cell-based
[16] = system: H460 large cell carcinoma cells (K-Ras mutant); test: Growth inhibition, thoracic malignancy cell lines: H460; format: cell-based, human
[17] = target: 15N-labeled truncated K-Ras (1-166) (Homo sapiens, UniProt P01116); details: 200 μM protein, 25° C., chemical shift perturbations Q25, N26, S32, T35, E37
Method: The titration was followed by NMR ^15N-edited HSQC spectra acquired on a 600 MHz Bruker spectrometer at 25° C.

[18] = system: activated (GTP-bound) Ras in H358 human lung cancer cells; test: Raf-RBD pull-down of active (GTP-bound) Ras; format: cell-based; details: 5 μM, varying exposure times
Method: H358 human lung cancer cells were grown in 6-well plates in DMEM medium containing 10% FBS. When the cells were about 70% confluent, the medium was replaced with DMEM containing 1% FBS. Two hours later, Ras inhibitors (kR-H6-48, HR-1, kR-4A-4, or kR-4B-2) were added to provide a final concentration of 5 μM.
After varying exposure times, the cells were rinsed with PBS and lysed. The lysates were cleared by centrifugation, incubated with immobilized Raf-RBD beads (which bind Ras) and analyzed by Western blot using manufacturer's protocols (Cytoskeleton, Inc., Denver, Colo.; Catalog No. BK008). The bands corresponding to active (GTP-bound) Ras were quantified with the help of MIPAV software.

[19] = system: Ras-dependent cancer cells (H358, SKBR3, SKOV3, ID8, MPR-178); test: MTT growth assay on Ras-dependent cancer cells; format: cell-based, human, murine; details: 48 hours, 1% FBS
Method: Ras-dependent cancer cells (H358 human lung cancer cells, SKBR3 human breast cancer cells, SKOV3 human ovarian cancer cells, ID8 murine ovarian cancer cells, and MPR-178 murine prostate cancer cells) were grown in DMEM medium containing 1% FBS and exposed to varying concentrations of Ras inhibitors (kR-H6-48 and HR-1) for 48 hours. Cell growth was evaluated utilizing an MTT ((3-(4,5-Dimethylthiazol-2-yl)-2,5-diphenyltetrazolium) assay. The absorbance of the wells at 544 nm was determined by a FLUOstar/POLARstar Galaxy (BMG Lab Technologies GmbH, Ortenberg, Germany) microplate reader. The assays were performed on untreated (control) and test cells. Cellular responses were calculated from the data using the following formula: 100×[(T−T0)/(C−T0)] for T>T0 and 100×[(T−T0)/T0] for T<T0, wherein T0 corresponds to cell density at the time of drug addition.

[20] = system: Lewis lung carcinoma LL/2 (LLC1) cells; test: Lewis lung carcinoma LLC1 isograft growth; format: in vivo, female CB57Bl/6 mice; details: 10 mg/kg s.c. near the tumor every second day
Method: Lewis lung carcinoma LL/2 (LLC1) (ATCC Catalog No. CRL-1642) cells were grown in DMEM medium containing 10% FBS. Cells were trypsinized and suspended in PBS. 3×10^6 LLC1 cells in 200 μl PBS were injected subcutaneously to the right flank of 8 weeks old female CB57Bl/6 mice.
Ras inhibitor injections started 2 weeks after LLC1 injections when tumors were at least 3 mm in diameter. For injections, solid kR-H6-48 was initially dissolved in DMSO to yield 20 mg/mL stock solution. DMSO stocks were diluted 20-fold in PBS pre-warmed to 35-37° C. 200 μl of the resulting solution (10 mg/kg dose) was injected subcutaneously near the tumor(s) every second day. The control group received 200 μl of 5% DMSO in PBS. Tumor size was measured with a caliper before each injection. The mice were sacrificed when the tumors reached maximal allowed size.

[21] = target: K-Ras in H2592 cells (Homo sapiens, UniProt P01116); details: GI50 concentrations, 18 hours
Excerpt: Goat anti-mouse antibodies with Alexa Fluor TM 594 (red) were used to visualize the anti-Ras mouse mAb.

[22] = A549, MTT, Table 2 HVR derivatives
[23] = A549, MTT, Table 1 helix 6 derivatives

Substance	GI50 [1] [µM]	GI50 [2] [µM]	GI50 [3] [µM]	GI50 [4] [µM]	GI50 [5] [µM]	GI50 [6] [µM]	GI50 [7] [µM]	GI50 [8] [µM]	amount of Ras protein [9]	GI50 [10] [µM]	GI50 [11] [µM]	GI50 [12] [µM]	GI50 [13] [µM]	GI50 ([14]; A549, K-Ras mutant, Table 3) [µM]	GI50 [14, 22] [µM]	GI50 [15] [µM]	GI50 [16] [µM]	GI50 [14, 23] [µM]	also measured
Ac-KKKKKKSKTKK-e-Pal [kR-4B-3]	2	7.3	6.2	> 10	2.7	2.9	2.4	1.5	reduced the amount of Ras protein in lung cancer cells in a concentration-dependent manner	3	3.1	4.8	3.3	1.45	1.75	2.2	1	–	–
Pal-e-KAFYTLVREIRQYR [kR-H6-6]	–	–	–	–	–	–	–	–	–	–	–	–	–	–	–	–	–	0.25	site of interaction with K-Ras [17]: localized interaction of the peptide with the Switch I region of K-Ras
Cap-YQRVQRVLTYFA (all D) [kR-H6-48]	–	–	–	–	–	–	–	–	–	–	–	–	–	–	–	–	–	0.0008 ± 0.0005	GTP-bound Ras (fraction of control) [18]: reduction in activated (GTP-bound) Ras; growth of Ras-dependent cancer cells (cell number, percent of control) [19]: growth inhibition of Ras-dependent cancer cells; LLC1 isograft growth [20]: inhibited LLC1 isograft growth
Ac-YRLKKISKEEKTPGLNVKIKKK-e-Pal [kR-4A-3]	2.2	> 10	8.2	> 10	3	2.2	2.6	2.4	reduced the amount of Ras protein in lung cancer cells in a concentration-dependent manner	4	7.4	6.1	5.1	3.1	1.9	5.9	1.5	–	Ras protein levels by immunostaining [21]: reduction in protein levels; pattern of K-Ras distribution [21]: lack of characteristic punctuate pattern of K-Ras distribution
